Earlier results in patent publication US8882743B2, “Apparatus and method for application of a pharmaceutical to the tympanic membrane for photodynamic laser myringotomy” (priority 2006, dated 2014).

System: tympanic membrane
Conditions: lance myringotomy with concomitant mitomycin-C versus myringotomy without mitomycin-C

Compound: CO[C@@]12[C@H](COC(N)=O)C3=C(C(=O)C(C)=C(N)C3=O)N1C[C@@H]1N[C@@H]12 [mitomycin-C]
- time required for closure of the fistulae formed: statistically significant increase
